Here are results for six molecules from ChEMBL document CHEMBL5291721, “A preclinical secondary pharmacology resource illuminates target-adverse drug reaction associations of marketed drugs” (Nat Commun, 2023).

Assay [1] has as its target T1, Alpha-2C adrenergic receptor (Homo sapiens, UniProt P18825).
T1 sequence (P18825 whole entry): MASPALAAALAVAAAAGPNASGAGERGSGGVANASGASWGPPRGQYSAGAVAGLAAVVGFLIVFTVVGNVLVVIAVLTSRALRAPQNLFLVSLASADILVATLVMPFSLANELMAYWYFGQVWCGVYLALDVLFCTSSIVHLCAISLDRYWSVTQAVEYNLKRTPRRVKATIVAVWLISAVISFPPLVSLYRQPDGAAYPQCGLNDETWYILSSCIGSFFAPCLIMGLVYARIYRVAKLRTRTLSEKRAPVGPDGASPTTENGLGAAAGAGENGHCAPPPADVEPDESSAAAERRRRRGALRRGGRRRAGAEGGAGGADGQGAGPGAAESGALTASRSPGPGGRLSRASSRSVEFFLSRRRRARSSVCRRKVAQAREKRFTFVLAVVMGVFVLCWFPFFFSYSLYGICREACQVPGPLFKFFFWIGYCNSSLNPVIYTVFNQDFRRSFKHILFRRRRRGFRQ
It is filed as functional.

The target in assay [2] is T2, Type-1 angiotensin II receptor (Homo sapiens, UniProt P30556).
T2 sequence (P30556 whole entry): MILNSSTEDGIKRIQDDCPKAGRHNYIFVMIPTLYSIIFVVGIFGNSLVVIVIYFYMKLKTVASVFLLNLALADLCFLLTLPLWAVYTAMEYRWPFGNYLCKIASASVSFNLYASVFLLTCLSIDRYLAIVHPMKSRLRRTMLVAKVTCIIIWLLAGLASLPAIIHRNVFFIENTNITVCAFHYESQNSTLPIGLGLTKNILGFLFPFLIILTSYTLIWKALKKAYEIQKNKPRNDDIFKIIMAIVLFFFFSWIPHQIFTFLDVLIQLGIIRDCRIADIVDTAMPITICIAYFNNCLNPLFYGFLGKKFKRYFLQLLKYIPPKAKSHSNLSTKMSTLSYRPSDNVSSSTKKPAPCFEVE

Assay [3] has as its target Vasopressin V1a receptor (Homo sapiens, UniProt P37288).
Assay [4] concerns the target T3, Muscarinic acetylcholine receptor M1 (Homo sapiens, UniProt P11229).
T3 sequence (P11229 whole entry): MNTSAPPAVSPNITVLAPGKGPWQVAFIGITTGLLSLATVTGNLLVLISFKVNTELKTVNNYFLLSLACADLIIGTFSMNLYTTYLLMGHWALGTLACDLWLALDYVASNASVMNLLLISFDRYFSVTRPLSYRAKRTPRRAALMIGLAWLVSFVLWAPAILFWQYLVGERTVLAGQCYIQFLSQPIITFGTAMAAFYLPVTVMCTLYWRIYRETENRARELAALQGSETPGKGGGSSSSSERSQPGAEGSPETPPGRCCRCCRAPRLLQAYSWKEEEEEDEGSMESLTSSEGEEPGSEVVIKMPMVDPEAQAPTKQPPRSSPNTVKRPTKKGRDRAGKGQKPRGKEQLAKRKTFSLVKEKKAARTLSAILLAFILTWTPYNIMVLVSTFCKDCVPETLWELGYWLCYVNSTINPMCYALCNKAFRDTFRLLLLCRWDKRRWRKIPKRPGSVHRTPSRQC
It is filed as functional.

The target of assay [5] is D(1A) dopamine receptor (Homo sapiens, UniProt P21728). It is filed as functional, cell-based.
D(1A) dopamine receptor, sequence (P21728 whole entry): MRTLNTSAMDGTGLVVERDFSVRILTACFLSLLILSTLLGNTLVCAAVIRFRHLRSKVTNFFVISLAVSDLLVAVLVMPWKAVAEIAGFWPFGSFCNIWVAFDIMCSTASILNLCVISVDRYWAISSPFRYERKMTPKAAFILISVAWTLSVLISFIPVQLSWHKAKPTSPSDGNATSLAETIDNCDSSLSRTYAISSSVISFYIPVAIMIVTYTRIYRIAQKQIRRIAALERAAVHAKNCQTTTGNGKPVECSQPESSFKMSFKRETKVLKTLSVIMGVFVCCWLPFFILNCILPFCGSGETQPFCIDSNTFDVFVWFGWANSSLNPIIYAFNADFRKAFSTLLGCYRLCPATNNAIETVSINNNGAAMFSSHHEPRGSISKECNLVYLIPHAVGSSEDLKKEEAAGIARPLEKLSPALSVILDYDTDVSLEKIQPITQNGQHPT
The target of assay [6] is T4, Estrogen receptor (Homo sapiens, UniProt P03372).
T4 sequence (P03372 whole entry): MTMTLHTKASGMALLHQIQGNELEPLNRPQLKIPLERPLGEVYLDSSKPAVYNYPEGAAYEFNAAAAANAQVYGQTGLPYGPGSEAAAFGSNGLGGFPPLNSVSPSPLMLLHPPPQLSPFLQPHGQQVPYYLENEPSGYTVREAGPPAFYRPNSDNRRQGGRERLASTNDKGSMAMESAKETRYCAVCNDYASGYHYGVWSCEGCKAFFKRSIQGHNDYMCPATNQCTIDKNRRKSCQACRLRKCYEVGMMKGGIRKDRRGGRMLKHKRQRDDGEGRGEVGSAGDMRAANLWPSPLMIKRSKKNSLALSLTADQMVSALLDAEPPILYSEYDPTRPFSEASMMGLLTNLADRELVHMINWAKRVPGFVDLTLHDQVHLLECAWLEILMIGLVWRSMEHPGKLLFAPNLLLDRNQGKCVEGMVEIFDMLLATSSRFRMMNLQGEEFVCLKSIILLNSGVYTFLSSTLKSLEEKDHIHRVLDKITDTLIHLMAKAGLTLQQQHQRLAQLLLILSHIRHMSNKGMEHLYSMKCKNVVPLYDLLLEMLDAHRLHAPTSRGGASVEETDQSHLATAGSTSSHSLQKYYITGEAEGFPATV

The target of assay [7] is Gamma-aminobutyric acid receptor subunit alpha-1 (Rattus norvegicus, UniProt P62813).
Gamma-aminobutyric acid receptor subunit alpha-1, sequence (P62813 whole entry): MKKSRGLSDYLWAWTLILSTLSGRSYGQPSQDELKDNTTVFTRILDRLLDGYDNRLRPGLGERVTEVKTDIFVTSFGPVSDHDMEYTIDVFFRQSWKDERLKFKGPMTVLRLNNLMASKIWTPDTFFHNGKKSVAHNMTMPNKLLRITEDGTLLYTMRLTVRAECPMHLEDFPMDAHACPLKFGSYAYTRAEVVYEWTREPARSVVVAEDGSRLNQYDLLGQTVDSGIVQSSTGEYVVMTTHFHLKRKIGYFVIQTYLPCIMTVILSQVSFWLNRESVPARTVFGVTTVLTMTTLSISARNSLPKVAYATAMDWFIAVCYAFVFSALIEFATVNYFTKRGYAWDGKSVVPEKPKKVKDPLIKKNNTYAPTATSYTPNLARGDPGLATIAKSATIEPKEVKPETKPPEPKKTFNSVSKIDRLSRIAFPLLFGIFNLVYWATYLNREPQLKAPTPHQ
For assay [8], the target named is 5-hydroxytryptamine receptor 2B (Homo sapiens, UniProt P41595). In kind it is functional, cell-based.
5-hydroxytryptamine receptor 2B, sequence (P41595 whole entry): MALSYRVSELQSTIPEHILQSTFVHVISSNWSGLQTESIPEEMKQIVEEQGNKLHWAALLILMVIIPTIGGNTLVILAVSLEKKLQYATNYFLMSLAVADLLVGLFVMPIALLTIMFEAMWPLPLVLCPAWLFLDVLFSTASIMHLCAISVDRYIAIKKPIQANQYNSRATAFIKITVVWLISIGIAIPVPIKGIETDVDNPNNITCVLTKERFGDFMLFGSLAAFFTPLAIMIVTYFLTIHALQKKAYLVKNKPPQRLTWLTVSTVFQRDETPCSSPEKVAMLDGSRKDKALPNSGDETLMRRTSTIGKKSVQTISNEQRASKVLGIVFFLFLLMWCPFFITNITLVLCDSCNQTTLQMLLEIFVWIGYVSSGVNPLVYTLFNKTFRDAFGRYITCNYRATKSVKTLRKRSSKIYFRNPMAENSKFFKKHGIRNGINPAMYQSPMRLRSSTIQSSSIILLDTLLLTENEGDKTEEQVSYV
Assay [9] has as its target Voltage-gated inwardly rectifying potassium channel KCNH2 (Homo sapiens, UniProt Q12809). It is filed as functional. As to conditions: read-out: AC50.
For assay [10], the target named is 3',5'-cyclic-AMP phosphodiesterase 4D (Homo sapiens, UniProt Q08499). It is filed as functional.
3',5'-cyclic-AMP phosphodiesterase 4D, sequence (Q08499 whole entry): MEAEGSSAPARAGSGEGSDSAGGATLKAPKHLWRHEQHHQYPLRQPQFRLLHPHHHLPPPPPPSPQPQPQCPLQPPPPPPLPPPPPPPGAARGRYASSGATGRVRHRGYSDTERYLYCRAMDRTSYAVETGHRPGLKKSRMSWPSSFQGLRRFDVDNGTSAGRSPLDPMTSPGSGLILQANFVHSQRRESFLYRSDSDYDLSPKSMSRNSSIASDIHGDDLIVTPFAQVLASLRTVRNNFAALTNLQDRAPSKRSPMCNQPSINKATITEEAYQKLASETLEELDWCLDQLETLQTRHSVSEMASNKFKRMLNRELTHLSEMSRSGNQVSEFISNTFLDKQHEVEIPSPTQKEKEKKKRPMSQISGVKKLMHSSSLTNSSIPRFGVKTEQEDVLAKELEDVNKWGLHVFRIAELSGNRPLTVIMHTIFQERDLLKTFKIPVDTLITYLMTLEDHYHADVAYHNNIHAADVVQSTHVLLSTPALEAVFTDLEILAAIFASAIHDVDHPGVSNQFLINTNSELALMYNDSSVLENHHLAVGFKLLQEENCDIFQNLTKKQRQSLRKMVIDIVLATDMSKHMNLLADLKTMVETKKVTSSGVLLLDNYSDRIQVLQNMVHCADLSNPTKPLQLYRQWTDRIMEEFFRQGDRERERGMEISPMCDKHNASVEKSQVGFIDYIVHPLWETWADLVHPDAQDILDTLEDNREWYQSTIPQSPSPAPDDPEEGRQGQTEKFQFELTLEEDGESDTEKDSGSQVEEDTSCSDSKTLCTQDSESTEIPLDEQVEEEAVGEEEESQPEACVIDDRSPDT
Assay [11] concerns the target T5, Equilibrative nucleoside transporter 1 (Homo sapiens, UniProt Q99808).
T5 sequence (Q99808 whole entry): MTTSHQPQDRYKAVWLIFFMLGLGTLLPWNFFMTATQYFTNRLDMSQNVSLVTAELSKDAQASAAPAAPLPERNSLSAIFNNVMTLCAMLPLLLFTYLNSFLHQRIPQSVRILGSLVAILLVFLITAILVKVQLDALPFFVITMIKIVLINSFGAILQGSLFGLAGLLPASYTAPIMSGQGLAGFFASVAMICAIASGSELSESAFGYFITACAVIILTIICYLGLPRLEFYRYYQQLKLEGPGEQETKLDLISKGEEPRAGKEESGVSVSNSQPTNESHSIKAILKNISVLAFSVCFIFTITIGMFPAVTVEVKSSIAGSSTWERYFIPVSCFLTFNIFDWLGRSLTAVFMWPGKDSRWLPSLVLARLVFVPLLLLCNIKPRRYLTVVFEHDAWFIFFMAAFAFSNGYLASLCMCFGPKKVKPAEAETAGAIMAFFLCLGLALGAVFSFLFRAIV

Assay [12] deals with Sodium-dependent dopamine transporter (Homo sapiens, UniProt Q01959).
Sodium-dependent dopamine transporter, sequence (Q01959 whole entry): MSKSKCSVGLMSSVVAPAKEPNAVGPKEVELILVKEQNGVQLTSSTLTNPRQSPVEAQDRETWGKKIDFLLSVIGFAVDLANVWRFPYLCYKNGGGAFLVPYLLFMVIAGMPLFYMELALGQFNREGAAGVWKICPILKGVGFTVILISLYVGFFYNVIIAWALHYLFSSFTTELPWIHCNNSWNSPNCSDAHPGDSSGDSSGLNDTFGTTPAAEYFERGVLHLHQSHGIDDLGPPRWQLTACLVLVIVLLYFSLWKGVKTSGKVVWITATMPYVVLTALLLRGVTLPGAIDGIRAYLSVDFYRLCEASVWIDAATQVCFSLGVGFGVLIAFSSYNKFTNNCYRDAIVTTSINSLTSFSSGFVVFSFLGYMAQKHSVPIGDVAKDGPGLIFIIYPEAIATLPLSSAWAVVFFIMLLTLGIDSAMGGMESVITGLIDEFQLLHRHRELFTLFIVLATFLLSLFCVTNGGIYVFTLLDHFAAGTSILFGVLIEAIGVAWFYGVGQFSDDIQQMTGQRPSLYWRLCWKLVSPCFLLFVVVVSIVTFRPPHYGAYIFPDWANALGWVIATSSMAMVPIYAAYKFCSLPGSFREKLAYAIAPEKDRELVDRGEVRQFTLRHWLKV
The target of assay [13] is Histamine H3 receptor (Homo sapiens, UniProt Q9Y5N1).
Histamine H3 receptor, sequence (Q9Y5N1 whole entry): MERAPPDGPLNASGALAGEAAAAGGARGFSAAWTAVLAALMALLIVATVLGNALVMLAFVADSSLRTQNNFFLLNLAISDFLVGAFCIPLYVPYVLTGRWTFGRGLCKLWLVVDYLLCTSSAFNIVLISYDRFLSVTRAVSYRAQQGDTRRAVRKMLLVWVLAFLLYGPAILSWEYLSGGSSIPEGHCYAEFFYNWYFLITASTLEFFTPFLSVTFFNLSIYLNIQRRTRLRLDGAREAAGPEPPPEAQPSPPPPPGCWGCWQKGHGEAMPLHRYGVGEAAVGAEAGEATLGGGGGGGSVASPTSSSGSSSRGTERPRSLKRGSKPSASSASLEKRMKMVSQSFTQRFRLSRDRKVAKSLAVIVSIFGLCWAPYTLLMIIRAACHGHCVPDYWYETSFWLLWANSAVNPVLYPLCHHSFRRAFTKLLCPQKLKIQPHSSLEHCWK
Note: assay procedure not described here.

Vasopressin V1a receptor, sequence (P37288 whole entry): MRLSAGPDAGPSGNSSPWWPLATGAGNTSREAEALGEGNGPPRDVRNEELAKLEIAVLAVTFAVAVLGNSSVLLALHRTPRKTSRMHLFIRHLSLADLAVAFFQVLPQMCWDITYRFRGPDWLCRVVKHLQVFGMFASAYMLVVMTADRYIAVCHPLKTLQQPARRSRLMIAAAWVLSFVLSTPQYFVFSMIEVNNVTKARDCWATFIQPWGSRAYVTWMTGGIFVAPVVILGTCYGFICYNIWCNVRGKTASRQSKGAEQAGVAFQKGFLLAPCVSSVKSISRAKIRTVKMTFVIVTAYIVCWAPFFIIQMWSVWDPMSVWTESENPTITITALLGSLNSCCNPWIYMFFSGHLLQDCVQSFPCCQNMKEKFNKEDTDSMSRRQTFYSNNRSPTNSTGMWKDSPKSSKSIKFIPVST
Voltage-gated inwardly rectifying potassium channel KCNH2, sequence (Q12809 whole entry): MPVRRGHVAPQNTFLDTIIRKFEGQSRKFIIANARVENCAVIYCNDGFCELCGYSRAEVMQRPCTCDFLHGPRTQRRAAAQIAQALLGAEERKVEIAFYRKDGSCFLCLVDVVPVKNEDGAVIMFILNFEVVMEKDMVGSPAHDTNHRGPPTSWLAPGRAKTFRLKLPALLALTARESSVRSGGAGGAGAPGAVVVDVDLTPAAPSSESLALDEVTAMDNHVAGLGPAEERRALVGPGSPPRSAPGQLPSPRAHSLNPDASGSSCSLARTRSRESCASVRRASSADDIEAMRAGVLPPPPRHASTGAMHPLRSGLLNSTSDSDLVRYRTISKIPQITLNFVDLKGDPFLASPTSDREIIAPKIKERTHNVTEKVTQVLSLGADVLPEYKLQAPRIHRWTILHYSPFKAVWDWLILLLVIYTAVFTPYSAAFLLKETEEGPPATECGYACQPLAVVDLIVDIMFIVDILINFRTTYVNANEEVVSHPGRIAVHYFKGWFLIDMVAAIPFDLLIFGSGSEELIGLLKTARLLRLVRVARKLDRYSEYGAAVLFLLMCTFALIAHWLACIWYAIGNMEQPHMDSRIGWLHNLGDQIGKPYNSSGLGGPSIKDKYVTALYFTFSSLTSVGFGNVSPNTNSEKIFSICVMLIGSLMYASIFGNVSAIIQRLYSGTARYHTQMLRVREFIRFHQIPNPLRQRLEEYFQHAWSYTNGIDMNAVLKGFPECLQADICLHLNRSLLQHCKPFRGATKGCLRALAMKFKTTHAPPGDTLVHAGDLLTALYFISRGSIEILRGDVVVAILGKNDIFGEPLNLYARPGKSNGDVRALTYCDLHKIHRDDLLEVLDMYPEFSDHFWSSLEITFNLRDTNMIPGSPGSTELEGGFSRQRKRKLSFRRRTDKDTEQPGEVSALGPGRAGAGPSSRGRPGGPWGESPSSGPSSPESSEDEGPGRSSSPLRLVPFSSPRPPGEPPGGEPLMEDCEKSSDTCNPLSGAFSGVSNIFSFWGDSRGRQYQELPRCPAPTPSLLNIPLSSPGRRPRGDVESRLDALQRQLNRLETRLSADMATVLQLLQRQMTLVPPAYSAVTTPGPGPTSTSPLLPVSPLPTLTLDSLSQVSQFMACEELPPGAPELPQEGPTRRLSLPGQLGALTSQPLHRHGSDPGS

Regarding `CO[C@@]1(NC(=O)Cc2cccs2)C(=O)N2C(C(=O)O)=C(COC(N)=O)CS[C@@H]21` [CEFOXITIN], the concentration at half-maximal activity (AC50) in assay [1], in assay [2], in assay [3], in assay [4], in assay [5] and in [6] was more than 30 µM each time. Moreover, the AC50 in [7] was more than 10 µM; in [8], more than 30 µM; in assay [9], more than 30 µM; in [10], more than 30 µM; in assay [11], more than 30 µM; in assay [12], more than 30 µM. Besides, the AC50 in assay [13] is more than 30 µM.
On to `CCC(C)(Oc1ccc(C2(c3ccc(OC(C)(CC)C(=O)O)cc3)CCCCC2)cc1)C(=O)O` (stereo not drawn) [CLINOFIBRATE], for which the AC50 in [1], in assay [2], in [3], in assay [4], in [5] and in assay [6] was more than 30 µM each time. Also, the AC50 in assay [7], in [8], in assay [9], in [10], in assay [11] and in assay [12] was more than 30 µM in each case. The molecule also came in with an AC50 in [13] of more than 30 µM.
Turning to `CCCCC[C@H](O)/C=C/[C@H]1[C@H](O)CC(=O)[C@@H]1C/C=C\CCCC(=O)O` [DINOPROSTONE], the concentration at half-maximal activity (AC50) is more than 30 µM in assay [1]; more than 30 µM in [2]; more than 30 µM in assay [3]; more than 30 µM in [4]; more than 30 µM in [5]; 23 µM in [6]. Besides, the half-maximal activity concentration (AC50) is more than 30 µM in assay [7]; more than 30 µM in [8]; more than 30 µM in assay [9]; 11 µM in assay [10]; more than 30 µM in assay [11]; more than 30 µM in assay [12]. Moreover, the concentration at half-maximal activity (AC50) in assay [13] was more than 30 µM.
As to `CC(C)c1cc2c(cc1S(=O)(=O)O)[C@@]1(C)CCC[C@@](C)(C(=O)O)[C@@H]1CC2` [ECABET], the half-maximal activity concentration (AC50) in assay [1], in [2], in [3], in assay [4], in assay [5] and in assay [6] was more than 30 µM throughout. Moreover, the AC50 in assay [7], in assay [8], in assay [9], in [10], in [11] and in assay [12] was more than 30 µM in each case. This molecule also had a concentration at half-maximal activity (AC50) in assay [13] of more than 30 µM.
For `COC(=O)N[C@@H](C)CNc1nccc(-c2cn(C(C)C)nc2-c2cc(Cl)cc(NS(C)(=O)=O)c2F)n1` [ENCORAFENIB], the AC50 in assay [1], in assay [2], in assay [3], in assay [4], in [5] and in assay [6] was more than 30 µM throughout. Moreover, the AC50 in [7] was more than 30 µM; in assay [8] it was more than 30 µM; in [9], more than 30 µM; in [10], 4.4 µM; in assay [11], 25.9 µM; in assay [12], more than 30 µM. The same molecule showed a concentration at half-maximal activity (AC50) in assay [13] of more than 30 µM.
As to `Clc1ccc2c(c1)C(c1ccccc1)=NCc1nncn1-2` [ESTAZOLAM], the half-maximal activity concentration (AC50) in assay [1] is more than 10 µM; in assay [2] it was more than 30 µM; in assay [3] it was more than 30 µM; in [4], more than 10 µM; in [5], more than 10 µM; in assay [6], more than 30 µM. The AC50 in assay [7] is more than 10 µM; in assay [8] it was more than 10 µM; in assay [9], more than 30 µM; in assay [10], 10 µM; in [11], more than 30 µM; in assay [12], more than 30 µM. In assay [13], this molecule came in with an AC50 of more than 10 µM.

In general, AC50 refers to the concentration giving half of the maximal activity seen.
